Columns and labels:
Leishmania donovani [1] = test: Antileishmanial activity against promastigote forms of Leishmania donovani MHOM/ET/1967/HU3 assessed as reduction in cell viability after 72 hrs by MTT assay; format: functional, organism-based; settings: MHOM/ET/1967/HU3, 72 h
[2] = Hemolytic activity in human red blood cells; format: cell-based, Erythrocyte; settings: red blood cells (erythrocytes)
[3] = Selectivity index, ratio of HC50 for human red blood cells to IC50 for promastigote forms of Leishmania donovani MHOM/ET/1967/HU3; format: toxicity; settings: read-out: Selectivity Index
Leishmania donovani [4] = test: Potency index, ratio of Amphotericin B IC50 to compound IC50 for promastigote forms of Leishmania donovani MHOM/ET/1967/HU3; format: functional

Row | Compound | IC50 (Leishmania donovani [1]) | HC50 [2] | selectivity ratio [3] | Ratio IC50 (Leishmania donovani [4])
1 | C=C(C(=O)OCCOC(=O)C(=C)C(O)c1cccc([N+](=O)[O-])c1)C(O)c1cccc([N+](=O)[O-])c1 (centres undefined) | 43 µM | – | – | –
2 | C=C(C(=O)OC)C(O)c1ccc(Cl)cc1 (centres undefined) | 202 µM | – | – | –
3 | C=C(C(=O)OC)C(O)c1ccc(Br)cc1 (centres undefined) | 197 µM | – | – | –
4 | C=C(C(=O)OCCOC(=O)C(=C)C(O)c1ccccc1[N+](=O)[O-])C(O)c1ccccc1[N+](=O)[O-] (centres undefined) | 24.8 µM | – | – | –
5 | C[C@@H]1[C@H](O)[C@@H](C)/C=C/C=C/C=C/C=C/C=C/C=C/C=C/[C@H](O[C@@H]2O[C@H](C)[C@@H](O)[C@H](N)[C@@H]2O)C[C@@H]2O[C@](O)(C[C@@H](O)C[C@@H](O)[C@H](O)CC[C@@H](O)C[C@@H](O)CC(=O)O[C@H]1C)C[C@H](O)[C@H]2C(=O)O [AMPHOTERICIN B] | 0.62 µM | 11.6 µM | 18.7 | –
6 | C=C(C(=O)OCCOC(=O)C(=C)C(O)c1ccc([N+](=O)[O-])cc1)C(O)c1ccc([N+](=O)[O-])cc1 (centres undefined) | 44.6 µM | – | – | –
7 | C=C(C(=O)OC)C(O)c1ccccc1 (centres undefined) | 953 µM | – | – | –
8 | C=C(C(=O)OC)C(O)c1ccc2ccccc2c1 (centres undefined) | 185 µM | – | – | –
9 | C=C(C(=O)OC)C(O)c1ccc(F)cc1 (centres undefined) | 610 µM | – | – | –
10 | C=C(C(=O)OC)C(O)c1cccc([N+](=O)[O-])c1 (centres undefined) | 161 µM | – | – | –
11 | C=C(C(=O)OC)C(O)c1ccccc1[N+](=O)[O-] (centres undefined) | 690 µM | – | – | –
12 | C=C(C(=O)OCCOC(=O)C(=C)C(O)c1ccccc1)C(O)c1ccccc1 (centres undefined) | 126 µM | – | – | –
13 | C=C(C(=O)OC)C(O)c1ccc([N+](=O)[O-])cc1 (centres undefined) | 165 µM | – | – | –
14 | C=C(C(=O)OCCOC(=O)C(=C)C(O)c1ccc(Cl)cc1)C(O)c1ccc(Cl)cc1 (centres undefined) | 10.5 µM | > 200 µM | > 19.1 | –
15 | C=C(C(=O)OCCOC(=O)C(=C)C(O)c1ccc(Br)cc1)C(O)c1ccc(Br)cc1 (centres undefined) | 0.5 µM | > 200 µM | > 400 | 1.24
16 | C=C(C(=O)OCCOC(=O)C(=C)C(O)c1ccc(F)cc1)C(O)c1ccc(F)cc1 (centres undefined) | 42.4 µM | – | – | –
17 | C=C(C(=O)OCCOC(=O)C(=C)C(O)c1ccc2ccccc2c1)C(O)c1ccc2ccccc2c1 (centres undefined) | 39 µM | – | – | –
